Experiment [1] deals with T1, human PPARdelta (Homo sapiens, UniProt Q03181).
T1 construct: amino acids S139-Y441; expressed in transfected cells
T1 sequence (Q03181 139-441): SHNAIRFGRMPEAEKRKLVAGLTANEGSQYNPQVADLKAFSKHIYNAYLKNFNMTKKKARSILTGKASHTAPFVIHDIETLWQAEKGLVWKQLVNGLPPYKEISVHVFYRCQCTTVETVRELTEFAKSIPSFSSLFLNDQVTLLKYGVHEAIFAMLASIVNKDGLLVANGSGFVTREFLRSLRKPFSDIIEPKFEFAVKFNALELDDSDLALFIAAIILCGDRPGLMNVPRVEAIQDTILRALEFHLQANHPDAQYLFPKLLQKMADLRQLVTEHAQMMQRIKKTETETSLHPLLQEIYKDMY
In words: cellular PPARdelta assay (stably transfected HEK luciferase reporter cell line). It is filed as cell-based. The settings on record: GR-GAL4-humanPPARdelta-LBD. As for the experimental part: The assay plates are incubated in an incubator at 37° C. and 5% CO2 for 24 h. […]
The raw data from the luminometer are transferred into a Microsoft Excel file. Dose-effect plots and EC50 values of PPAR agonists are calculated using the XL.Fit program as specified by the manufacturer (IDBS).
The potency of substances which bind to human PPARdelta and activate it in an agonistic manner was analyzed through the determination of the EC50 values of PPAR agonists in the cellular PPARdelta assay using a stably transfected HEK cell line (HEK=human embryo kidney) which is referred to here as PPARdelta reporter cell line. In analogy to the assay described for PPARalpha, the PPARdelta reporter cell line also contains two genetic elements, a luciferase reporter element (pdeltaM-GAL4-Luc-Zeo) and a PPARdelta fusion protein (GR-GAL4-humanPPARdelta-LBD) which mediates expression of the luciferase reporter element depending on a PPARdelta ligand. The stably and constitutively expressed fusion protein GR-GAL4-humanPPARdelta-LBD binds in the cell nucleus of the PPARdelta reporter cell line via the GAL4 protein portion to the GAL4 DNA binding motifs 5′-upstream of the luciferase reporter element which is stably integrated in the genome of the cell line. There is only little expression of the luciferase reporter gene in the absence of a PPARdelta ligand if fatty acid-depleted fetal calf serum (cs-FCS) is used in the assay. PPARdelta ligands bind and activate the PPARdelta fusion protein and thereby stimulate expression of the luciferase reporter gene. The luciferase which is formed can be detected by means of chemiluminescence via an appropriate substrate.
The production of the stable PPARdelta reporter cell line is based on a stable HEK-cell clone which was stably transfected with a luciferase reporter element. This step was already described above in the section “construction of the PPARalpha reporter cell line”. […]
The activity of PPARdelta agonists is determined in a 3-day assay in exact analogy to the procedure already described for the PPARalpha reporter cell line except that the PPARdelta reporter cell line and a specific PPARdelta agonist was used as a standard to control test efficacy.

For experiment [2], the target named is T2, human PPARgamma (Homo sapiens, UniProt P37231).
T2 construct: amino acids I152-Y475; expressed in transfected cells; host or cells: HEK cells, transient transfection of pcDNA3-GAL4-humanPPARgammaLBD
T2 sequence (P37231 with tags, fused parts or gaps isoform P37231-2 limits assumed): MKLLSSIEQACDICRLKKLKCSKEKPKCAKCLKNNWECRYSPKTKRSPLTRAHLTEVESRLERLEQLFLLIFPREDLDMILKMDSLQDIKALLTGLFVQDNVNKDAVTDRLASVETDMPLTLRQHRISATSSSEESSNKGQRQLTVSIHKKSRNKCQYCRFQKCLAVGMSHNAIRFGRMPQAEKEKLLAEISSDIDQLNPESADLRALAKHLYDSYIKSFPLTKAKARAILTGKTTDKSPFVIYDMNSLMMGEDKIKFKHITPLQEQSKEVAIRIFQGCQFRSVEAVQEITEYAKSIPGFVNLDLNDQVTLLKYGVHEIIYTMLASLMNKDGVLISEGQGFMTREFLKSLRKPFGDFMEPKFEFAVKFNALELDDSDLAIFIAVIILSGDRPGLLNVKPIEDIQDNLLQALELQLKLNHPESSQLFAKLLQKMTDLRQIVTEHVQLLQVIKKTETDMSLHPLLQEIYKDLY
In words: cellular PPARgamma assay (transiently transfected HEK cells, luciferase reporter). It is filed as cell-based. The settings on record: GAL4-humanPPARgammaLBD. The text has this: Determination of EC50 values of PPAR agonists in the cellular PPARgamma assay
A transient transfection system is employed to determine the cellular PPARgamma activity of PPAR agonists. It is based on the use of a luciferase reporter plasmid (pGL3basic-5×GAL4-TK) and of a PPARgamma expression plasmid (pcDNA3-GAL4-humanPPARgammaLBD). Both plasmids are transiently transfected into human embryonic kidney cells (HEK cells). There is then expression in these cells of the fusion protein GAL4-humanPPARgammaLBD which binds to the GAL4 binding sites of the reporter plasmid. In the presence of a PPARgamma-active ligand, the activated fusion protein GAL4-humanPPARgammaLBD induces expression of the luciferase reporter gene, which can be detected in the form of a chemiluminescence signal after addition of a luciferase substrate. As a difference from the stably transfected PPARalpha reporter cell line, in the cellular PPARgamma assay the two components (luciferase reporter plasmid and PPARgamma expression plasmid) are transiently transfected into HEK cells because stable and permanent expression of the PPARgamma fusion protein is cytotoxic.
The luciferase reporter plasmid pGL3basic-5×GAL4-TK is based on the vector pGL3basic from Promega. The reporter plasmid is prepared by cloning five binding sites of the yeast transcription factor GAL4 (each binding site with the sequence 5′-CTCGGAGGACAGTACTCCG-3′), together with a 160 bp-long thymidine kinase promoter section (Genbank Accession #AF027128) 5′-upstream into pGL3basic. 3′-downstream of the thymidine kinase promoter is the complete luciferase gene from Photinus pyralis (Genbank Accession #M15077) which is already a constituent of the plasmid pGL3basic used. The cloning and sequencing of the reporter plasmid pGL3basic-5×GAL4-TK took place in analogy to the description in Sambrook J. et. al. (Molecular cloning, Cold Spring Harbor Laboratory Press, 1989).
The PPARgamma expression plasmid pcDNA3-GAL4-humanPPARgammaLBD was prepared by first cloning the cDNA coding for amino acids 1-147 of the yeast transcription factor GAL4 (Genbank Accession #P04386) into the plasmid pcDNA3 (from Invitrogen) 3′-downstream of the cytomegalovirus promoter. Subsequently, the cDNA of the ligand-binding domain (LBD) of the human PPARgamma receptor (amino acids I152-Y475; Accession #g1480099) 3′-downstream of the GAL4 DNA binding domain. Cloning and sequencing of the PPARgamma expression plasmid pcDNA3-GAL4-humanPPARgammaLBD again took place in analogy to the description in Sambrook J. et. al. (Molecular cloning, Cold Spring Harbor Laboratory Press, 1989). […]
The activity of PPARgamma agonists is determined in a 4-day assay which is described below. […]

The test system of experiment [3] is PPARdelta. The note with it: obese, insulin resistant rhesus monkeys; cited from earlier work.
The subject of experiment [4] is PPARdelta. The note with it: diabetic animal model; cited from earlier work.

Regarding `CCOc1cc(C(F)(F)F)ccc1C(=O)NCC1(c2ccc(S(=O)(=O)Nc3nnc(C(C)C)s3)cc2)CCCC1` [Example 4, 2-Ethoxy-N-{1-[4-(5-isopropyl-[1,3,4]thiadiazol-2-ylsulfamoyl)-phenyl]-cyclopentylmethyl}-4-trifluoromethyl-benzamide], the EC50 is 21 nM in experiment [1] and 7 nM in experiment [2].

With `Cc1cc(SCc2sc(-c3ccc(C(F)(F)F)cc3)nc2C)ccc1OCC(=O)O` [GW501516], in experiment [3], the HDL-cholesterol result is reported as “raises”, the insulin levels entry is listed as “decreases”, the “plasma LDL-cholesterol” value was “decreases” and the triglycerides result was “decreases”.

As to `CCOc1cc(C(F)(F)F)ccc1C(=O)N[C@@H]1CCC[C@@H]1c1ccc(S(=O)(=O)Nc2nnc(C(C)C)s2)cc1` (relative stereo) [Example 3, 2-Ethoxy-N-{cis-2-[4-(5-isopropyl-[1,3,4]thiadiazol-2-ylsulfamoyl)-phenyl]-cyclopentyl}-4-trifluoromethyl-benzamide], the EC50 was determined as 240 nM in experiment [1] and 230 nM in experiment [2].

Regarding `CCOc1cc(C(F)(F)F)ccc1C(=O)N[C@@H]1CCC[C@H]1c1ccc(S(=O)(=O)Nc2nnc(C(C)C)s2)cc1` (relative stereo) [Example 2, 2-Ethoxy-N-{trans-2-[4-(5-isopropyl-[1,3,4]thiadiazol-2-ylsulfamoyl)-phenyl]-cyclopentyl}-4-trifluoromethyl-benzamide], the EC50 in experiment [1] was found to be 26 nM; in experiment [2], 430 nM.

For `CCOc1cc(C(F)(F)F)ccc1C(=O)NCC1(c2ccc(S(=O)(=O)Nc3nnc(C(C)C)s3)cc2)CCCCC1` [Example 1, 2-Ethoxy-N-{1-[4-(5-isopropyl-[1,3,4]thiadiazol-2-ylsulfamoyl)-phenyl]-cyclohexylmethyl}-4-trifluoromethyl-benzamide], the half-maximal effective concentration (EC50) is 120 nM in experiment [1] and above 10000 nM in experiment [2].

Regarding `CCCc1c(OCCCOc2ccc(OCC(=O)O)cc2)ccc(C(C)=O)c1O` [Example L-165041], the plasma cholesterol result in experiment [4] is recorded as “raises”.

(Values after patent US7683181B2, “Cyclic N-[1,3,4]-thiadiazol-2-yl-benzene sulfonamides, pharmaceutical compositions and methods for the therapeutic use thereof” (Sanofi-aventis, priority 2005, dated 2010).)
